The results in this text go back to paper doi:10.1101/307710v1, “Assignment of the resting state of the secondary active transporter BetP by integrating spectroscopic measurements and molecular simulations” (biorxiv, 2018).

The structures appear in SMILES notation.

For this assay, the target named is T1, BetP (Corynebacterium glutamicum, UniProt P54582).
T1 construct: plasmid pASK-IBA5betP, Strep-Tactin purified from E. coli DH5alpha-T1, reconstituted in E. coli polar lipid liposomes; homotrimer
T1 sequence (P54582 1-595): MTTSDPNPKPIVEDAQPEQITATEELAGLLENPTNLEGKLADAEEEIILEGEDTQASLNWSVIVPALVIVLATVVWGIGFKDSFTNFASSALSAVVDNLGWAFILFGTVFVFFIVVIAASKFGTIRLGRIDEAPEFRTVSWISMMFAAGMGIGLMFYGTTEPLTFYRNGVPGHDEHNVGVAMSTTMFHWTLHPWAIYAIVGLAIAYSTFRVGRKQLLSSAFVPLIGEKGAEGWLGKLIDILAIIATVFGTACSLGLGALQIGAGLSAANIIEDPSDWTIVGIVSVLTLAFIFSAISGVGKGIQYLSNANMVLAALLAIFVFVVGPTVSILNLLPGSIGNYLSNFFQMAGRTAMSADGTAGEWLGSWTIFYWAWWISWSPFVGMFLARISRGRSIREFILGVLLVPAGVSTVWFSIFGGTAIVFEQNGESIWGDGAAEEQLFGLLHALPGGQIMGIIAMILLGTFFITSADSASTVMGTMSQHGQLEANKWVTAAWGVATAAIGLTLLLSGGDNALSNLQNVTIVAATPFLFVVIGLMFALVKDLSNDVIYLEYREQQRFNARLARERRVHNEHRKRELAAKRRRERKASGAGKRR
Description: […]-betaine uptake into proteoliposomes. The settings on record: labelled compound; 50 uM betaine, 25 mM NaCl, pH 7.5, 0.6 osmol/kg, valinomycin. It counts as biochemical.

Consider `C[N+](C)(C)CC(=O)[O-]` [betaine], for which the “[14C]-betaine uptake into proteoliposomes” value is “the activity of G450R5/S516R5 is only slightly decreased compared to the wildtype”.
